{"source": "patent US12139477B2", "about": "“Compounds, salts thereof and methods for treatment of diseases” (ACADIA PHARMACEUTICALS INC., priority 2017, dated 2024)", "key": {"hERG channel": {"target": "T1, hERG channel (Homo sapiens, UniProt Q12809)", "T1 construct": "host or cells: CHO cells, stably transfected", "T1 sequence (Q12809 whole entry)": "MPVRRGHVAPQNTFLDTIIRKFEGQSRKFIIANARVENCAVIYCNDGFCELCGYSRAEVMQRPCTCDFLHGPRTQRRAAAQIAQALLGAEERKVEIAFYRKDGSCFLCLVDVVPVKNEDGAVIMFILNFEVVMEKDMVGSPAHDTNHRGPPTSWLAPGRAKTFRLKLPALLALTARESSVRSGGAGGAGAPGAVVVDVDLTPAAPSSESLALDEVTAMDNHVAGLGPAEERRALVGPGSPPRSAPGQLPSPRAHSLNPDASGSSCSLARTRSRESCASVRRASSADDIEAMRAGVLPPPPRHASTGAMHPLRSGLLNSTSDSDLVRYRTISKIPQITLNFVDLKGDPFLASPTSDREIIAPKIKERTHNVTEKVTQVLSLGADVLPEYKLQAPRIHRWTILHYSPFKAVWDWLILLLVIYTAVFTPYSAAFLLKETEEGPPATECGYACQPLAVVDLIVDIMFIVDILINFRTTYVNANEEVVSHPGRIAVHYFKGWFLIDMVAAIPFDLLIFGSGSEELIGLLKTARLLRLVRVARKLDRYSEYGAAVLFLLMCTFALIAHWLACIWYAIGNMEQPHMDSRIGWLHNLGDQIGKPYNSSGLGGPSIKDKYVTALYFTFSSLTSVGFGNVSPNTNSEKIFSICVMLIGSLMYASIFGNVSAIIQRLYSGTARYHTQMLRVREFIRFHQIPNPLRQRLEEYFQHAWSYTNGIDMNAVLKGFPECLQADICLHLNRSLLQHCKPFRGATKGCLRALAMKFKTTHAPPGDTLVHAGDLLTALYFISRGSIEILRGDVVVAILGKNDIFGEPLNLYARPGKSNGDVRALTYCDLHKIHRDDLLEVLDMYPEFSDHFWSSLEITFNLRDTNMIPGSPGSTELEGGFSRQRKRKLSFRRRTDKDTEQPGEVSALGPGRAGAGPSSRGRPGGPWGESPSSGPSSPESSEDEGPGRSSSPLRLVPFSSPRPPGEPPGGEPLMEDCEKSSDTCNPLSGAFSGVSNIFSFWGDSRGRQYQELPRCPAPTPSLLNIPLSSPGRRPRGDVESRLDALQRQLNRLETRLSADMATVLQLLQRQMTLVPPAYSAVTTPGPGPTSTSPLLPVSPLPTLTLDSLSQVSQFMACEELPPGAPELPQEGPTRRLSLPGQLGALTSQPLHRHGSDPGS", "test": "hERG assay, whole cell recordings in CHO cells (AVIVA)", "format": "cell-based", "settings": "CHO cells stably expressing hERG, pH 7.4", "summary_of_the_method": "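Whole-cell voltage clamp of CHO cells stably expressing hERG, held at −80 mV; steps to +20 mV for 5 s, then −50 mV for 5 s, with tail current measured against a −50 mV baseline, every 12 s. Compounds applied in 4 additions until steady state (max 12 min), vs 0.1% DMSO vehicle baseline.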"}, "[1]": {"target": "T2, Nav1.5 sodium ion channel (alpha subunit) (Homo sapiens, UniProt Q14524)", "T2 construct": "host or cells: HEK293 cells", "T2 sequence (Q14524 whole entry)": "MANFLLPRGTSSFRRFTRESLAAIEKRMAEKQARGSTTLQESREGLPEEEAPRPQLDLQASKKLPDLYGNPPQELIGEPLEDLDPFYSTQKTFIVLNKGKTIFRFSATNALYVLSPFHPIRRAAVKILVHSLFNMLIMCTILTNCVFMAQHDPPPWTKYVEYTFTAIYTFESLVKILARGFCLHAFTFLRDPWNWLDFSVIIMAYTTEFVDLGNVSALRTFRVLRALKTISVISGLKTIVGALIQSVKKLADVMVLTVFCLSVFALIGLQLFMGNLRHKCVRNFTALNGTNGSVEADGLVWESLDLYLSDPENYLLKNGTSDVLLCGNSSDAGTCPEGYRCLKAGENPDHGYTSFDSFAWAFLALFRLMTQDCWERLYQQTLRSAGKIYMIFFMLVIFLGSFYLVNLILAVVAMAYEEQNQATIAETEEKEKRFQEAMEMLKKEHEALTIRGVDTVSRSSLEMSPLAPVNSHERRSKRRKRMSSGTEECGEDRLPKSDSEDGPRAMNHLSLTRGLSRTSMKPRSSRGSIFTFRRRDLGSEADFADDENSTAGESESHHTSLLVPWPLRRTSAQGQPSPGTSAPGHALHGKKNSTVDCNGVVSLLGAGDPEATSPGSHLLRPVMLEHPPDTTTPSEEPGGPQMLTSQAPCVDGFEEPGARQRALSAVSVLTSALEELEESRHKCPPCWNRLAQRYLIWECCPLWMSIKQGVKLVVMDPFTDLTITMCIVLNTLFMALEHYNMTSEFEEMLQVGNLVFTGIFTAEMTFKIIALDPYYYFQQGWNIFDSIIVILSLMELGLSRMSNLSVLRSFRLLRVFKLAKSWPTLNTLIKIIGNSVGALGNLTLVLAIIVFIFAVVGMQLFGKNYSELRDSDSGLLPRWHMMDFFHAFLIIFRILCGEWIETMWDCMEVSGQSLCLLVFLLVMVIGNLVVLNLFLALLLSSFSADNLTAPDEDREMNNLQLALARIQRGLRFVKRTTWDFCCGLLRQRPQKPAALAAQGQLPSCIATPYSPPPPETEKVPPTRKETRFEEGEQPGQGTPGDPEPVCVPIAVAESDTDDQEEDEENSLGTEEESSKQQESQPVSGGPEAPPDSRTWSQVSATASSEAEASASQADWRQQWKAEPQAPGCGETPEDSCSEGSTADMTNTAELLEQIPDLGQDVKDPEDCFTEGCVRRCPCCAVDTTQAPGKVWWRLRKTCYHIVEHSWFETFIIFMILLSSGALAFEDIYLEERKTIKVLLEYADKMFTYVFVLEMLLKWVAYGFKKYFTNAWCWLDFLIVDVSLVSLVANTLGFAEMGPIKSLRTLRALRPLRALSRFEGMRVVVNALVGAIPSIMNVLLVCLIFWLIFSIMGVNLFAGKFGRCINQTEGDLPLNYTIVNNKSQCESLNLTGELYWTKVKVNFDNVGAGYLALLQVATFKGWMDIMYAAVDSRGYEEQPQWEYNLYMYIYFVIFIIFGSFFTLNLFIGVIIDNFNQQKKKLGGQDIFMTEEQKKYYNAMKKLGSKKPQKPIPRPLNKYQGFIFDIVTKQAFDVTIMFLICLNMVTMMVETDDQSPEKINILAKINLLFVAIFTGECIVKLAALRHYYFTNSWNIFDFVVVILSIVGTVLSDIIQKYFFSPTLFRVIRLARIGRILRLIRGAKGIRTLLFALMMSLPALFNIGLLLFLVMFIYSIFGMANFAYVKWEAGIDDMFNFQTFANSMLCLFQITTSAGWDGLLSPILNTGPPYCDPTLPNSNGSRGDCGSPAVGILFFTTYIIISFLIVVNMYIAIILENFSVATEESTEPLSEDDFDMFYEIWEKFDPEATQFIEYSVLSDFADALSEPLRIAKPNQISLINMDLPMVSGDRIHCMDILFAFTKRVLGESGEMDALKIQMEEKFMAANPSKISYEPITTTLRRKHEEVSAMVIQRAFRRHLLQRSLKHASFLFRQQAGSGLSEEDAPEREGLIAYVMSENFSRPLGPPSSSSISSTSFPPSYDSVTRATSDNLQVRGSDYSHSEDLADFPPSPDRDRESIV", "test": "NaV1.5 whole cell recordings, HEK293 (AVIVA; for ACP-201, ACP-203 and ACP-204)", "format": "cell-based", "settings": "manual patch clamp; step to 0 mV; AVIVA method for ACP-201, ACP-203, ACP-204; read-out: NaV 1.5 IC50", "description": "NaV1.5 methods (for ACP-201, ACP-203 and ACP-204): These experiments were carried out at AVIVA Biosciences Corporation, 6330 Nancy Ridge Drive, Suite 103, San Diego, CA 92121.\nCells: HEK293 cells transfected with Nav1.5 sodium ion channel (alpha subunit) were selected for this study. Cells were cultured in DMEM/F12 containing 10% FBS, 500 μg/mL G418 and 1% penicillin/streptomycin. Trypsin (0.05%) was utilized for cell harvesting.\nExternal Solution: 90 mM NaCl; 50 mM TEA; 10 mM HEPES; 10 mM glucose; 4 mM KCl; 2 mM CaCl2); 305-315 mOsm; pH 7.4 (adjusted with 5M NaOH).\nInternal Solution: 140 mM CsF; 10 mM NaCl; 1 mM MgCl2; 10 mM HEPES; 5 mM EGTA; 295-305 mOsm; pH 7.4 (adjusted with 1M NaOH).\nElectrophysiology: All whole cell recordings were performed using PX 7000A (Axon Instruments) with AVIVA's […] technology. To achieve stable recordings, cells were voltage clamped at a holding potential 20 mV more negative than steady state half inactivation potential (Vh=V1/2−20 mV). V1/2 was determined by a pre-step from −130 mV to −40 MV for 1000 ms followed by a −10 mV step. V1/2 was determined independently for each cell to correct for both electrode potential and liquid junction potential offsets.\nTest Article Handling and Dilutions: All test articles were prepared from 10 mM DMSO stock solutions. Solutions were mixed by sonication for 20 min, followed by vigorous vortexing. Prior to testing, compounds were diluted to test concentrations in glass vials using External Solution. Dilutions were prepared no longer than 20 min prior to use.\nElectrophysiology Procedures: After achieving whole cell configuration, cells were monitored for 90 s to assess stability and then washed with External Solution for 66 s. for each cell achieving whole-cell access, an IV curve and steady state inactivation curve was measured. […] Whole cell parameters were monitored throughout the recoding procedure and corrected for any possible access resistance or input capacitance change (whole-cell compensation). […]"}}, "note": "pIC50: −log10 of the molar value."}
{"smiles": "CC(C)COc1ccc(CNC(=O)N(Cc2ccc(F)cc2F)C2CCN(C)CC2)cc1", "note": "[Example 3, 1-[(2,4-difluorophenyl)methyl]-1-(1-methylpiperidin-4-yl)-3-{[4-(2-methylpropoxy)phenyl]methyl}urea]", "values": [{"measurement": "inhibition at 1 µM", "setting": "hERG channel", "value": 33, "unit": "%"}, {"measurement": "pIC50", "setting": "[1]", "value": 5.38}]}
{"smiles": "CC(C)Oc1ccc(CNC(=O)N(Cc2ccc(F)cc2F)C2CCN(C)CC2)cc1", "note": "[Example 5, 1-[(2,4-difluorophenyl)methyl]-1-(1-methylpiperidin-4-yl)-3-{[4-(propan-2-yloxy)phenyl]methyl}urea]", "values": [{"measurement": "inhibition at 1 µM", "setting": "hERG channel", "value": 29, "unit": "%"}, {"measurement": "pIC50", "setting": "[1]", "value": "< 5.00"}]}
{"smiles": "CN1CCC(N(Cc2ccc(F)cc2F)C(=O)NCc2ccc(OC3CC3)cc2)CC1", "note": "[Example 17, 3-[(4-cyclopropoxyphenyl)methyl]-1-[(2,4-difluorophenyl)methyl]-1-(1-methylpiperidin-4-yl)urea]", "values": [{"measurement": "inhibition at 1 µM", "setting": "hERG channel", "value": 32, "unit": "%"}, {"measurement": "pIC50", "setting": "[1]", "value": "< 5.00"}]}
